Assays:
[1] = test system: Monocotyledonous and dicotyledonous test plants; experiment: Herbicidal action before emergence of the plants (pre-emergence action); assay type: in vivo; conditions: 2000 g/ha, evaluated after 3 weeks, nine-step scale
Experimental: Monocotyledonous and dicotyledonous test plants are sown in standard soil in plastic pots. Immediately after sowing, the test substances as aqueous suspensions (prepared with a 25% wettable powder (Example F3, b) in accordance with WO 97/34485) or as emulsions (prepared with a 25% emulsion concentrate (Example F1, c)) are sprayed on at a rate of 2 kg of a.i./ha or 250 g of a.i./ha (500 l of water/ha). The test plants are then grown in the greenhouse under optimal conditions. After a test period of 3 weeks, the experiment is evaluated with reference to a nine-step scale (1=complete damage, 9=no effect). Score figures of 1 to 4 (in particular 1 to 3) mean a good to very good herbicidal action.

[2] = test system: Monocotyledonous and dicotyledonous test plants; experiment: Post-emergence herbicidal action; assay type: in vivo; conditions: 2000 g/ha, sprayed in 4- to 6-leaf stage, evaluated after approximately 18 days, nine-step scale
In short: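 Scoring uses a 1–9 scale (1 complete damage, 9 no effect), read roughly 18 days post-application. Compounds were applied post-emergence at 4–6 leaves, as aqueous suspension (25% wettable powder) or emulsion (25% emulsion concentrate), at 250 g or 2 kg a.i./ha in 500 l water/ha.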

SMILES | pre-emergence action, Cyperus [1] | pre-emergence action, Ipomoea [1] | pre-emergence action, Setaria [1] | pre-emergence action, Sinapis [1] | pre-emergence action, Solanum [1] | pre-emergence action, Stellaria [1] | Post-emergence action, Ipomoea [2] | Post-emergence action, Lolium [2] | Post-emergence action, Setaria [2] | Post-emergence action, Sinapis [2] | Post-emergence action, Solanum [2] | Post-emergence action, Stellaria [2]
Cc1nc(C(F)(F)F)ccc1C(=O)C1=C(O)C(C)(C)C(C)CC1=O (stereo not drawn) [Compound A2-B156] | 1 | 2 | 1 | 2 | 1 | 2 | 1 | 2 | 2 | 1 | 2 | 2
Cc1nc(C(F)(F)F)ccc1C(=O)C1=C(O)C(C)(C)OC(C)(C)C1=O [Compound A2-B618] | 1 | 1 | 1 | 2 | 1 | 1 | 2 | 2 | 2 | 1 | 2 | 2
Cc1nc(C(F)(F)F)ccc1C(=O)C1=C(O)CC(C(C)C)CC1=O (stereo not drawn) [Compound A2-B1061] | 3 | 3 | 2 | 2 | 1 | 2 | 2 | 2 | 2 | 1 | 2 | 2
Cc1nc(C(F)(F)F)ccc1C(=O)C1=C(O)CC(C)(C)CC1=O [Compound A2-B1063] | 1 | 2 | 1 | 2 | 1 | 2 | 2 | 2 | 4 | 1 | 2 | 2
COC1CCC(=O)C(C(=O)c2ccc(C(F)(F)F)nc2C)=C1O (stereo not drawn) [Compound A2-B1068] | 2 | 2 | 2 | 2 | 1 | 2 | 1 | 2 | 4 | 1 | 1 | 2
COC1CC(C)C(=O)C(C(=O)c2ccc(C(F)(F)F)nc2C)=C1O (stereo not drawn) [Compound A2-B1070, 3-Hydroxy-4-methoxy-6-methyl-2-(2-methyl-6-trifluoromethyl-pyridine-3-carbonyl)cyclohex-2-enone] | 2 | 3 | 3 | 2 | 2 | 2 | 2 | 4 | 2 | 2 | 2 | 2
C#CCC1CC(C)(C)C(=O)C(C(=O)c2ccc(C(F)(F)F)nc2C)=C1O (stereo not drawn) [Compound A2-B1082] | 2 | 2 | 2 | 2 | 1 | 2 | 1 | 2 | 2 | 1 | 1 | 2
CCC1CC(C)(C)C(=O)C(C(=O)c2ccc(C(F)(F)F)nc2C)=C1O (stereo not drawn) [Compound A2-B1089] | 1 | 2 | 2 | 2 | 1 | 2 | 1 | 2 | 2 | 1 | 1 | 2
Cc1nc(C(F)(F)F)ccc1C(=O)C1=C(O)C(C)C(C)(C)CC1=O (stereo not drawn) [Compound A2-B1095] | 3 | 4 | 2 | 2 | 1 | 2 | 1 | 2 | 4 | 1 | 2 | 2
CCN(CC)CC.Cc1nc(C(F)(F)F)ccc1C(=O)C1=C(O)CCCC1=O [Compound A2-B1100] | 1 | 3 | 1 | 2 | 1 | 2 | 2 | 2 | 3 | 1 | 1 | 2
Cc1nc(C(F)(F)F)ccc1C(=O)C1=C(O)CCC2(CC2)C1=O [Compound A2-C1] | 2 | 3 | 1 | 2 | 1 | 2 | 3 | 2 | 2 | 1 | 2 | 2
Cc1nc(C(F)(F)F)ccc1C(=O)C1=C(O)C(C)CC2(CC2)C1=O (stereo not drawn) [Compound A2-C2] | 2 | 3 | 1 | 1 | 1 | 1 | 2 | 1 | 1 | 1 | 1 | 1
Cc1nc(C(F)(F)F)ccc1C(=O)C1=C(O)C(C)(C)CC2(CC2)C1=O [Compound A2-C24] | 1 | 2 | 1 | 1 | 1 | 2 | 1 | 1 | 1 | 1 | 1 | 1

Source: patent publication US6673938B1, “Substituted pyridine herbicides” (Syngenta Participations AG, priority 1998, dated 2004)
